From patent US4996207A, “Three new non-polyglutamatable deazaaminopterins” (priority 1990, dated 1991)
Where “and” joins values, the source holds several entries; their conditions need not be identical. Identical values can stand only once. Entries after “also recorded” stand apart in the source; their conditions may differ. Like-named read-outs stand apart in the source and are kept apart here.

Legend:
[1] = test system: mammalian cells; details: versus MTX; cited from earlier work
[2] = result in words, cited from earlier work
[3] = test system: antitumor activity; details: result in words; cited from earlier work
[4] = molecular target: T1, folylpolyglutamate synthetase (FPGS) (Homo sapiens, UniProt Q05932); assay: Substrate activity towards CCRF-CEM human leukemia cell folylpolyglutamate synthetase (FPGS); assay type: biochemical; details: for Substrate activity: Conc 50 μM, CCRF-CEM human leukemia cell FPGS; for substrate for folylpolyglutamate synthetase: result in words
T1 construct: purified human leukemia cell folylpolyglutamate synthetase (FPGS); endogenous in cells; host or cells: CCRF-CEM human leukemia cells
T1 sequence (Q05932 43-587): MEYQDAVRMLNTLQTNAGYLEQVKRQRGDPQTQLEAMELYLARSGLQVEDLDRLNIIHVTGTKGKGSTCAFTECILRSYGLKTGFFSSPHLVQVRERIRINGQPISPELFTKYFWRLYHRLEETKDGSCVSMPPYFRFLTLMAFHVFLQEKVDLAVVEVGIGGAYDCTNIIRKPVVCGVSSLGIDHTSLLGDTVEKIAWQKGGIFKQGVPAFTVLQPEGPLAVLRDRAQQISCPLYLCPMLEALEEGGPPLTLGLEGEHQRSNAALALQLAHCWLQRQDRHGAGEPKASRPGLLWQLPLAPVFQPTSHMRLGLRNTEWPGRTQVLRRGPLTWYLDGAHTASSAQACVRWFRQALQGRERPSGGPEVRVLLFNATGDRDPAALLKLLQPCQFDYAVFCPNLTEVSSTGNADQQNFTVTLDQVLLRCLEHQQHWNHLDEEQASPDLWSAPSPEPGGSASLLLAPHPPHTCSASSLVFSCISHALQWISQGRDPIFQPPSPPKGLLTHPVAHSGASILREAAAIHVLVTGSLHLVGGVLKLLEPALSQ
Protocol: Compounds 1, 2 and 3 were evaluated as substrates of purified human leukemia cell folylpolyglutamate synthetase (FPGS).
The assays were performed as described by McGuire, Graber, Licato, Vincenz, Coward, Nimec and Galivan in Cancer Research 49:4517 (1989).

[5] = test system: three tumor models; assay: Antitumor activity in three tumor models (Table I); assay type: cell-based; details: result in words
Protocol: Manca cell growth assay was performed as described by Thorndike, Gaumont, Kisliuk, Sirotnak, Murthy and Nair in Cancer Research 49:158 (1989). Growth inhibition of H35hepatoma cells was measured as described by Patil, Jones, Nair, Galivan, Maley, Kisliuk, Gaumont, Duch and Ferone in the Journal of Medicinal Chemistry 32:1284 (1989) and that of CCRF-CEM human leukemia cells according to the procedures of McGuire, Graber, Licato, Vincenz, Coward, Nimec and Galivan (Cancer Research 49:4517, 1989).

[6] = test system: CCRF-CEM human leukemia cells; assay: Inhibition of tumor cell growth, CCRF-CEM human leukemia; assay type: cell-based
[7] = assay type: physicochemical
Text: In stage II the mixed anhydride 6 or 7 is reacted with an excess amount of a diester of .tau.-methyleneglutamic acid such as diethyl-.tau.-methyleneglutamic acid. Dimethyl, dibenzyl or di-t-butyl-.tau.-methylene glutamic acid may be substituted for the diethyl derivative. Diethyl-.tau.-methylene glutamate may be added as the hydrochloride form to the mixed anhydride solutions 6 or 7, followed by the addition of an equal amount or an excess of an acid acceptor such as triethylamine. Alternatively, diethyl-.tau.-methyleneglutamate hydrochloride may be dissolved in a suitable solvent such as DMF, neutralized with an equivalent amount of the acid acceptor, and then added to the mixed anhydride solution. This reaction mixture is stirred for 18 hours at 25-30° C. and the solvent is removed by evaporation under reduced pressure. The resulting coupled product is stirred with an excess of a mixture of 0.1 N NaOH and acetonitrile for 18 hours to give target compounds 1 or 2. […] The precipitate can be recovered by filtration, washed and dried.
For the preparation of compound 3 (Scheme 3), the solution of the mixed anhydride 6 is reacted with an excess amount of the diester of 3-hydroxyglutamic acid such as dimethyl-3-hydroxyglutamate. Diethyl, dibenzyl or di-t-butyl-3-hydroxyglutamate may be substituted for the dimethyl derivative. Dimethyl-3-hydroxyglutamate may be added to the solution of the mixed anhydrie as the hydrochloride followed by the addition of an equivalent or excess amount of the acid acceptor such as triethylamine. Alternatively, dimethyl-3-hydroxyglutamate hydrochloride may be dissolved in a suitable solvent such as DMF, neutralized with an equivalent amount of the acid acceptor such as triethylamine or N-methylmorpholine and then added to the mixed anhydride solution. The reaction mixture is then stirred for 18-24 hours at 25-30° C. and the solvent is removed by rotary evaporation under reduced pressure The resulting product is stirred with an excess of a 3:1 mixture of 0.1 N NaOH:acetonitrile for 10-18 hours to give target compound 3. […]

[8] = test system: H35 hepatoma cells; assay: Inhibition of tumor cell growth, H35 hepatoma; assay type: cell-based; details: read-out: I50, inhibition of tumor cell growth, H35 hepatoma
[9] = test system: H35 hepatoma cells (folinic acid transport); assay: Inhibition of folinic acid transport to H35 hepatoma cells; assay type: cell-based; details: for IC50: 0.25 h, Folinic acid 2 μM, 15 min uptake, read-out: I50, inhibition of folinic acid transport to H35 hepatoma cells; for transport to H35 hepatoma cells compared to methotrexate: ability to compete with folinic acid transport; for transport to tumor cells compared to methotrexate: fold versus methotrexate
[10] = molecular target: T2, human dihydrofolate reductase (Homo sapiens, UniProt P00374); assay: Inhibition of dihydrofolate reductase; assay type: biochemical; details: pure human enzyme from lymphoblastoid cells
T2 construct: Pure human dihydrofolate reductase from lymphoblastoid cells were used; endogenous in cells
T2 sequence (P00374 1-187): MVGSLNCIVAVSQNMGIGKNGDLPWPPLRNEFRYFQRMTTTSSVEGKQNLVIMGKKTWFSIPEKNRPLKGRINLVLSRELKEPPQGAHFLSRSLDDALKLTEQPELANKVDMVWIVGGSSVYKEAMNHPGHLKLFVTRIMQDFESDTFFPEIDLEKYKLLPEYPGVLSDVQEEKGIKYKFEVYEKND
Protocol: Pure human dihydrofolate reductase from lymphoblastoid cells were used. The enzymatic assay was performed as described by Pastore, Plante and Kisliuk in Methods in Enzymology 34:281 (1974).

[11] = test system: Human manca lymphoid leukemia; assay: Inhibition of tumor cell growth, Human manca lymphoid leukemia; assay type: cell-based; details: read-out: I50, inhibition of tumor cell growth, Human manca lymphoid leukemia
[12] = cited from earlier work
[13] = cited from earlier work; remark: listed apart in the source
[14] = cited from earlier work; remark: listed apart in the source
[15] = Homo sapiens; CCRF-CEM; value marked *: corrected for the presence of the d-enantiomer of methyleneglutamate; duplicate experiments; read-out: I50, inhibition of tumor cell growth, CCRF-CEM human leukemia (*)
[16] = Homo sapiens; CCRF-CEM; values correspond to duplicate experiments; no asterisk; read-out: I50, inhibition of tumor cell growth, CCRF-CEM human leukemia
[17] = human leukemia cells; on a comparative basis

Row | SMILES | metabolism to polyglutamyl derivatives [2] | Substrate activity [4] | substrate for folylpolyglutamate synthetase [4] | antitumor activity in three tumor models [5] | solubility in alkali [7] | IC50 [8] [nM] | IC50 [9] [nM] | IC50 [10] [nM] | IC50 [11] [nM] | other results
1 | CCC(Cc1cnc2nc(N)nc(N)c2n1)c1ccc(C(=O)N[C@@H](CCC(=O)O)C(=O)O)cc1 (stereo partly shown) [Compound 10-EDAM, 10-ethyl-10-deazaaminopterin] | metabolized to their poly-.tau.-glutamyl derivatives | – | – | – | – | – | – | – | – | transport to mammalian cells compared to MTX [1]: enhanced transport to mammalian cells compared to MTX; metabolism to polyglutamyl derivatives ([2]; listed as 10-ethyl derivative): undergo polyglutamylation; antitumor activity [3]: wide spectrum of antitumor activity
2 | C=C(CC(NC(=O)c1ccc(C(CC)Cc2cnc3nc(N)nc(N)c3n2)cc1)C(=O)O)C(=O)O (stereo not shown) [Compound 2, 4-amino-4-deoxy-10-ethyl-10-deazapteroyl-.tau.-methyleneglutamic acid] | – | 3 and 6 | not substrates of CCRF-CEM human leukemia cell folylpolyglutamate synthetase; also recorded: None of the new antifolates (1, 2 or 3) is a substrate for folylpolyglutamate synthetase | excellent antitumor activity | soluble in alkali | 11 | 3 | 32 | 9 | IC50 [6, 15]: 6 nM; IC50 [6, 16]: 4 nM; inhibition of growth of human leukemia cells compared to methotrexate [6, 17]: twice as powerful as methotrexate; transport to H35 hepatoma cells compared to methotrexate [9]: transported more efficiently to H35 hepatoma cells than methotrexate; transport to tumor cells compared to methotrexate [9]: three to five times more efficiently than methotrexate
3 | CN(Cc1cnc2nc(N)nc(N)c2n1)c1ccc(C(=O)N[C@@H](CCC(=O)O)C(=O)O)cc1 [Methotrexate, reference compound] | undergo polyglutamylation | – | – | – | – | 10 | 18 | – | 6 | IC50 ([6]; CCRF-CEM; values correspond to duplicate experiments; no asterisk; read-out: I50, inhibition of tumor cell growth, CCRF-CEM human leukemia): 8 nM; IC50 ([6]; Homo sapiens, CCRF-CEM; values correspond to duplicate experiments; no asterisk; read-out: I50, inhibition of tumor cell growth, CCRF-CEM human leukemia): 12 nM; metabolism to poly-glutamates in human tissues [12]: metabolism of the well known anticancer drug methotrexate to its poly-.tau.-glutamates in human tissues; metabolism to polyglutamyl derivatives ([2]; listed as MTX): metabolized to their poly-.tau.-glutamyl derivatives; formation of poly-glutamyl metabolites in rodent tissues [13]: formation of these metabolites in rodent tissues
4 | C=C(CC(NC(=O)c1ccc(CCc2cnc3nc(N)nc(N)c3n2)cc1)C(=O)O)C(=O)O (stereo not shown) [Compound 1, 4-amino-4-deoxy-10-deazapteroyl-.tau.-methyleneglutamic acid] | – | 5 and 3 | not substrates of CCRF-CEM human leukemia cell folylpolyglutamate synthetase; also recorded: None of the new antifolates (1, 2 or 3) is a substrate for folylpolyglutamate synthetase | excellent antitumor activity | soluble in alkali | 9 | 4 | 30 | 7 | IC50 [6, 15]: 5 nM; IC50 [6, 16]: 4 nM; inhibition of growth of human leukemia cells compared to methotrexate [6, 17]: twice as powerful as methotrexate; transport to H35 hepatoma cells compared to methotrexate [9]: transported more efficiently to H35 hepatoma cells than methotrexate; transport to tumor cells compared to methotrexate [9]: three to five times more efficiently than methotrexate
5 | Nc1nc(N)c2nc(CCc3ccc(C(=O)N[C@@H](CCC(=O)O)C(=O)O)cc3)cnc2n1 [10-Deazaaminopterin, reference compound] | undergo polyglutamylation | 1020 | – | – | – | – | – | – | – | –
6 | Nc1nc(N)c2nc(CCc3ccc(C(=O)NC(C(=O)O)C(O)CC(=O)O)cc3)cnc2n1 (stereo not shown) [Compound 3, 4-amino-4-deoxy-10-deazapteroyl-3-hydroxyglutamic acid] | – | 8 and 10 | not substrates of CCRF-CEM human leukemia cell folylpolyglutamate synthetase; also recorded: None of the new antifolates (1, 2 or 3) is a substrate for folylpolyglutamate synthetase | excellent antitumor activity | soluble in alkali | 28 | – | 33 | 15 | –
7 | C#CCN(Cc1ccc2nc(N)[nH]c(=O)c2c1)c1ccc(C(=O)N[C@@H](CCC(=O)O)C(=O)O)cc1 [CB 3717, N^10-propargyl-5,8-dideazafolic acid] | – | – | – | – | – | – | – | – | – | conversion to polyglutamyl derivative in normal murine tissues [14]: converted to its polyglutamyl derivatives in normal murine tissues
